Source: patent US5256559A, “Methods and compositions for inhibiting platelet aggregation” (Biogen, Inc., priority 1991, dated 1993)
Where two headings read alike, the source gives them in different places.

Tests used:
thrombin = thrombin (Homo sapiens, UniProt P00734); conditions: cited from earlier work
plasma = assay: activated partial thromboplastin time (APTT) of plasma from patients recovered from heparin-induced thrombocytopenia; design: species or system human; conditions: concentrations used in the platelet studies, FIGS. 12A and 12B
Procedure: We isolated whole blood from patients who had recovered from heparin-induced thrombocytopenia. We then centrifuged the blood at 4° C. for 15 minutes at 2,000× g in a Sorval rotor to obtain plasma. […] We measured APTT semi-automatically using a Coagamate XC (General Diagnostics Organon Teknika).

Hirudin
Kd (thrombin; overall tight binding, read-out: Kd, binding to thrombin in a 1:1 stoichiometric complex): ~0.02 nM | Kd (thrombin; site separate from the catalytic site, read-out: Kd, "low" affinity site on the thrombin molecule): ~10 nM

heparin
prolongation of APTT (plasma): sufficient to prolong APTT into the desired therapeutic range
